Experimental data as given in ChEMBL document CHEMBL3272131, “Molecular connectivity. 6. Examination of the parabolic relationship between molecular connectivity and biological activity” (J Med Chem, 1976).

Legend:
[1] = system: Mycobacterium tuberculosis; assay: Antimicrobial activity against Mycobacterium tuberculosis; type: functional
Oryctolagus cuniculus = organism: Oryctolagus cuniculus; assay: Induction of hypnotic activity in rabbit; type: functional
Rattus norvegicus = organism: Rattus norvegicus; assay: Induction of hypnotic activity in rat; type: functional
Pseudomonas aeruginosa = assay: Antimicrobial activity against Pseudomonas aeruginosa; type: functional
Staphylococcus aureus = assay: Antimicrobial activity against Staphylococcus aureus; type: functional
Clostridium perfringens = assay: Antimicrobial activity against Clostridium welchii; type: functional
Mus musculus = assay: Induction of anesthetic activity in mouse; type: functional
[2] = Drug absorption in intestine (unknown origin) assessed as tissue-bound transfer; type: ADME, tissue-based
[3] = Drug absorption in intestine (unknown origin) assessed as serosal transfer; type: ADME, tissue-based
[4] = Drug absorption in intestine (unknown origin) assessed as mucosal loss; type: ADME, tissue-based
[5] = Toxicity in sheep RBC assessed as hemolysis; type: cell-based, Ovis aries; settings: erythrocyte

CCCCCOc1ncccc1N
-log(1/MIC) [1]: 5.76

COc1ncccc1N
-log(1/MIC) [1]: 2.59

CCCC1(C(C)C)C(=O)NC(=O)NC1=O
-log(1/MED) (Oryctolagus cuniculus): 3.63

C=CCC1(CC(C)C)C(=O)NC(=O)NC1=O [BUTALBITAL]
-log(1/MED) (Rattus norvegicus): 3.63

C=CCC1(C(C)CC)C(=O)NC(=O)NC1=O (centres undefined) [TALBUTAL]
-log(1/MED) (Rattus norvegicus): 3.78

C=CCC1(CCC(C)C)C(=O)NC(=O)NC1=O
-log(1/MED) (Rattus norvegicus): 3.45

CCCCCCCCCCCCCCC[N+](C)(C)Cc1ccccc1
-log(1/MIC) (Pseudomonas aeruginosa): 3.84
-log(1/MKC) (Pseudomonas aeruginosa): 3.74
-log(1/MIC) (Staphylococcus aureus): 5.84
-log(1/MIC) (Clostridium perfringens): 5.14
-log(1/MKC) (Clostridium perfringens): 5.14

C=CCC1(CC)C(=O)NC(=O)NC1=O [ETALLOBARBITAL]
-log(1/MED) (Rattus norvegicus): 3.28

CCCC1(C(C)C(C)(C)C)C(=O)NC(=O)NC1=O (centres undefined)
-log(1/AD50) (Mus musculus): 3.29

COC(N)=O [METHYL CARBAMATE]
log%Abs [2]: -0.38
log%Abs [3]: 0.45
log%Abs [4]: 0.52

CCCCCCCCCCCCCCCCCCC[N+](C)(C)Cc1ccccc1
-log(1/MIC) (Pseudomonas aeruginosa): 2.91
-log(1/MKC) (Pseudomonas aeruginosa): 2.52
-log(1/MIC) (Staphylococcus aureus): 4.91
-log(1/MIC) (Clostridium perfringens): 4.73
-log(1/MKC) (Clostridium perfringens): 4.73

CCCCCCCCCCC[N+](C)(C)Cc1ccccc1
-log(1/MIC) (Pseudomonas aeruginosa): 3.06
-log(1/MKC) (Pseudomonas aeruginosa): 2.92
-log(1/MIC) (Staphylococcus aureus): 5.06
-log(1/MIC) (Clostridium perfringens): 4.06
-log(1/MKC) (Clostridium perfringens): 4.06

COc1ccc(N)cc1
-log(1/MIC) [1]: 3.39

CCCC1(CCC(C)C)C(=O)NC(=O)NC1=O
-log(1/MED) (Oryctolagus cuniculus): 3.48

CC(C(C)(C)C)C1(C)C(=O)NC(=O)NC1=O (centres undefined)
-log(1/AD50) (Mus musculus): 2.64

CCOc1ccc(N)cc1
-log(1/MIC) [1]: 4.44

CCCCCCCCOc1ncccc1N
-log(1/MIC) [1]: 3.75

CCCCCCCCCCCCCC[N+](C)(C)Cc1ccccc1 [MIRISTALKONIUM ION]
-log(1/MIC) (Pseudomonas aeruginosa): 3.65
-log(1/MKC) (Pseudomonas aeruginosa): 3.96
-log(1/MIC) (Staphylococcus aureus): 5.82
-log(1/MIC) (Clostridium perfringens): 5.12
-log(1/MKC) (Clostridium perfringens): 5.12
-log(1/HC50) [5]: 4.4

CCCCCCCCCCCCCCCCCC[N+](C)(C)Cc1ccccc1
-log(1/MKC) (Pseudomonas aeruginosa): 2.63
-log(1/MIC) (Staphylococcus aureus): 5.19
-log(1/MIC) (Clostridium perfringens): 4.71
-log(1/MKC) (Clostridium perfringens): 4.71
-log(1/HC50) [5]: 4.52

CCCCCCCC[N+](C)(C)Cc1ccccc1
-log(1/MKC) (Pseudomonas aeruginosa): 1.68
-log(1/MIC) (Staphylococcus aureus): 3.69
-log(1/MIC) (Clostridium perfringens): 3
-log(1/MKC) (Clostridium perfringens): 2.69
-log(1/HC50) [5]: 1.52

CCC1(c2ccccc2)C(=O)NC(=O)NC1=O [PHENOBARBITAL]
-log(1/MED) (Oryctolagus cuniculus): 3.46

CCCCCCCCCCCCCCCC[N+](C)(C)Cc1ccc2c(c1)OCO2
-log(1/MIC) (Staphylococcus aureus): 4.2

CCCCCCCCOc1ccc(N)cc1
-log(1/MIC) [1]: 3.44

CCOc1ncccc1N
-log(1/MIC) [1]: 3.54

CCCCC1(C(C)C(C)(C)C)C(=O)NC(=O)NC1=O (centres undefined)
-log(1/AD50) (Mus musculus): 3.36

CCCCCCOc1ccncc1N
-log(1/MIC) [1]: 5.8

CC(C)(C)CC1(C)C(=O)NC(=O)NC1=O
-log(1/AD50) (Mus musculus): 2.12

CCCCCCCCCCCCCCCCC[N+](C)(C)Cc1ccccc1
-log(1/MIC) (Pseudomonas aeruginosa): 3.57
-log(1/MKC) (Pseudomonas aeruginosa): 3.06
-log(1/MIC) (Staphylococcus aureus): 5.18
-log(1/MIC) (Clostridium perfringens): 4.7
-log(1/MKC) (Clostridium perfringens): 4.7

CCCOC(N)=O
log%Abs [2]: -0.04
log%Abs [3]: 0.71
log%Abs [4]: 0.78

CC(C)CCC1(CC(C)(C)C)C(=O)NC(=O)NC1=O
-log(1/AD50) (Mus musculus): 3.26

CCC1(C(C)C)C(=O)NC(=O)NC1=O [PROBARBITAL]
-log(1/MED) (Oryctolagus cuniculus): 3.3
-log(1/MED) (Rattus norvegicus): 3.34

CCCCC1(C(C)C)C(=O)NC(=O)NC1=O
-log(1/MED) (Rattus norvegicus): 3.49

CC(C)(C)OC(N)=O
log%Abs [2]: 0
log%Abs [3]: 0.65
log%Abs [4]: 0.73

CCCOc1ncccc1N
-log(1/MIC) [1]: 4.79

CCCCCC1(CC(C)(C)C)C(=O)NC(=O)NC1=O
-log(1/AD50) (Mus musculus): 3.32

CCCCCCCCCC[N+](C)(C)Cc1ccc(Cl)cc1
-log(1/MIC) (Staphylococcus aureus): 3.6

CCCCC1(CC(C)(C)C)C(=O)NC(=O)NC1=O
-log(1/AD50) (Mus musculus): 3.33

C=CCC1(CC=C)C(=O)NC(=O)NC1=O [ALLOBARBITAL]
-log(1/MED) (Rattus norvegicus): 3.54

CCCCCCCOC(N)=O
log%Abs [2]: -0.28
log%Abs [3]: -0.17
log%Abs [4]: 0.08

CCCCOc1ccncc1N
-log(1/MIC) [1]: 5.73

CCCCCCCOc1ncccc1N
-log(1/MIC) [1]: 4.62

CCCCOc1ccc(N)c2ccccc12
-log(1/MIC) [1]: 4.03

CCCCCOc1ccc(N)cc1
-log(1/MIC) [1]: 5.45

CCCCCCCCCCCCCCCCCC[N+](C)(C)Cc1ccc(Cl)cc1Cl
-log(1/MIC) (Staphylococcus aureus): 3.3

CCCCCCCCCCCCCCCC[N+](C)(C)Cc1ccccc1 [CETALKONIUM]
-log(1/MIC) (Pseudomonas aeruginosa): 3.68
-log(1/MKC) (Pseudomonas aeruginosa): 3.3
-log(1/MIC) (Staphylococcus aureus): 5.56
-log(1/MIC) (Clostridium perfringens): 5.16
-log(1/MKC) (Clostridium perfringens): 5.16
-log(1/HC50) [5]: 4.79

CCOC(N)=O [URETHANE]
log%Abs [2]: -0.22
log%Abs [3]: 0.53
log%Abs [4]: 0.6

CCC1(CC(C)(C)C)C(=O)NC(=O)NC1=O
-log(1/AD50) (Mus musculus): 2.91

CCCCOC(N)=O
log%Abs [2]: 0.1
log%Abs [3]: 0.82
log%Abs [4]: 0.9

CCCC1(CC(C)(C)C)C(=O)NC(=O)NC1=O
-log(1/AD50) (Mus musculus): 3.04

CC(C)CC1(CC(C)(C)C)C(=O)NC(=O)NC1=O
-log(1/AD50) (Mus musculus): 3.27

CC(C)COC(N)=O
log%Abs [2]: 0.04
log%Abs [3]: 0.75
log%Abs [4]: 0.83

CCCCCCCCCCCCC[N+](C)(C)Cc1ccccc1 [BENZALKONIUM]
-log(1/MIC) (Pseudomonas aeruginosa): 3.8
-log(1/MKC) (Pseudomonas aeruginosa): 3.85
-log(1/MIC) (Staphylococcus aureus): 5.8
-log(1/MIC) (Clostridium perfringens): 5.1
-log(1/MKC) (Clostridium perfringens): 5.1

C=CCC1(C(C)C(C)(C)C)C(=O)NC(=O)NC1=O (centres undefined)
-log(1/AD50) (Mus musculus): 3.39

CCC1(CC)C(=O)NC(=O)NC1=O [BARBITAL]
-log(1/MED) (Rattus norvegicus): 2.91

CCCCCCCCCCCC[N+](C)(C)Cc1ccc2c(c1)OCO2
-log(1/MIC) (Staphylococcus aureus): 4

CCCCCCCC[N+](C)(C)Cc1ccc(Cl)cc1
-log(1/MIC) (Staphylococcus aureus): 2.6

CCCC1(CCC)C(=O)NC(=O)NC1=O
-log(1/MED) (Oryctolagus cuniculus): 3.55

CCC1(CCC(C)C)C(=O)NC(=O)NC1=O [AMOBARBITAL]
-log(1/MED) (Rattus norvegicus): 3.59

CC(C)COc1ncccc1N
-log(1/MIC) [1]: 4.52

CCCCC1(CC)C(=O)NC(=O)NC1=O [BUTETHAL]
-log(1/MED) (Rattus norvegicus): 3.53

CCC1(CC(C)C)C(=O)NC(=O)NC1=O
-log(1/MED) (Oryctolagus cuniculus): 3.63

CCCCCCCCCCOc1ncccc1N
-log(1/MIC) [1]: 3.19

CCC1(C(C)C(C)(C)C)C(=O)NC(=O)NC1=O (centres undefined)
-log(1/AD50) (Mus musculus): 3.15

CCCCCCCCOC(N)=O
log%Abs [2]: -0.57
log%Abs [3]: -0.43
log%Abs [4]: -0.19

C=CCC1(CCC)C(=O)NC(=O)NC1=O
-log(1/MED) (Rattus norvegicus): 3.47

CCCCCOC(N)=O
log%Abs [2]: 0.02
log%Abs [3]: 0.57
log%Abs [4]: 0.68

CCCCCCOc1ccc(N)cc1
-log(1/MIC) [1]: 5.8

NC(=O)OCc1ccccc1 [BENZYL CARBAMATE]
log%Abs [2]: 0.01
log%Abs [3]: 0.59
log%Abs [4]: 0.69

CCCCOc1ccc(N)cc1
-log(1/MIC) [1]: 5.42

CCCCOc1ccc(N)cn1
-log(1/MIC) [1]: 5.13

CCCCCCOC(N)=O
log%Abs [2]: -0.05
log%Abs [3]: 0.35
log%Abs [4]: 0.5

CCCC(C)(C)OC(N)=O
log%Abs [2]: -0.21
log%Abs [3]: 0.09
log%Abs [4]: 0.26

CCC(C)(C)OC(N)=O
log%Abs [2]: 0.04
log%Abs [3]: 0.68
log%Abs [4]: 0.77

C=CCC1(C(C)C)C(=O)NC(=O)NC1=O [APROBARBITAL]
-log(1/MED) (Rattus norvegicus): 3.6

CCCCC1(CCCC)C(=O)NC(=O)NC1=O
-log(1/MED) (Rattus norvegicus): 3.08

CCCCCCCCCCCC[N+](C)(C)Cc1ccccc1 [BENZODODECINIUM]
-log(1/MIC) (Pseudomonas aeruginosa): 3.61
-log(1/MKC) (Pseudomonas aeruginosa): 3.45
-log(1/MIC) (Staphylococcus aureus): 5.61
-log(1/MIC) (Clostridium perfringens): 4.61
-log(1/MKC) (Clostridium perfringens): 4.61
-log(1/HC50) [5]: 3.82

CCCCCCOc1ccc(N)cn1
-log(1/MIC) [1]: 5.49

CCCCCCCCCC[N+](C)(C)Cc1ccccc1
-log(1/MIC) (Pseudomonas aeruginosa): 2.74
-log(1/MKC) (Pseudomonas aeruginosa): 2.41
-log(1/MIC) (Staphylococcus aureus): 4.74
-log(1/MIC) (Clostridium perfringens): 3.57
-log(1/MKC) (Clostridium perfringens): 3.57
-log(1/HC50) [5]: 2.95

C=CCC1(CCCC)C(=O)NC(=O)NC1=O
-log(1/MED) (Rattus norvegicus): 3.47
